For orientation: IC50 means the concentration that gives 50% inhibition. Higher therefore signals weaker potency.

Data on eleven molecules can be found in ChEMBL document CHEMBL1130444, “Inhibitory effects of pentamidine analogues on spermine stimulated ligand binding to the NMDA receptor complex” (Bioorg Med Chem Lett, 1997).

Molecules are shown by their SMILES. Values joined by “and” are separate entries in the source; they are usually repeats but may differ in a detail not shown here. Equal entries are not always repeated.

The target of test [1] is Glutamate NMDA receptor. Kind of test: Inhibition of [3H]MK-801 binding to the NMDA receptor of rat hippocampal membranes, measured in buffer containing 50 mM TRIS acetate, pH 7. In kind it is cell membranes, Membrane.
The target in test [2] is Glutamate NMDA receptor. Kind of test: Inhibition of [3H]MK-801 binding to the NMDA receptor of rat hippocampal membranes, measured in buffer containing 20 mM TRIS acetate, pH 7. It is filed as cell membranes, Membrane.
In test [3] the target is T1, Glutamate NMDA receptor (Rattus norvegicus) (UniProt P35439+Q00959+Q00960+Q00961+Q62645+Q8VHN2+Q9R1M7). Kind of test: Effect of spermine on the inhibition of [3H]-MK-801 binding to the NMDA receptor TRIS acetate, pH 7. It is filed as protein-complex assay.
Test [4] concerns the target T1, Glutamate NMDA receptor (Rattus norvegicus). The test can be described thus: Hill coefficient for binding to NMDA receptor. It is filed as protein-complex assay.
The target is the same in test [5]. The test can be described thus: Hill coefficient for binding to NMDA receptor in TRIS acetate pH 7. In kind it is protein-complex assay.
Test [6] shares this target. The test can be described thus: Effect of spermine on the inhibition of [3H]MK-801 binding to the NMDA receptor TRIS acetate, pH 7. In kind it is protein-complex assay.
Test [7] has the same target. The test can be described thus: Effect of spermine on the inhibition of [3H]MK-801 binding to the NMDA receptor at 100 TRIS acetate, pH 7. It is filed as protein-complex assay.
Test [8] has as its target Glutamate NMDA receptor. Kind of test: Inhibition of [3H]MK-801 binding to NMDA receptor in 50 mM TRIS acetate pH 7. It is filed as protein-complex assay, Rattus norvegicus.
For test [9], the target named is T1, Glutamate NMDA receptor (Rattus norvegicus). Kind of test: Effect of spermine on inhibition of [3H]MK-801 binding to NMDA receptor at 100 TRIS acetate, pH 7. It is filed as protein-complex assay.

Consider `C(=C/COc1ccc(C2=NCCN2)cc1)/COc1ccc(C2=NCCN2)cc1`, for which the IC50 in test [1] was 26.7 µM; in test [2] it was 18.8 µM and 15.9 µM. Also, the Increase in IC50 was 5.48 in [3]; 9.9 and 12.1 in [6]. In addition, the figures for the nH in test [4] and in test [5] were 1.21 and 0.99, respectively.
For `N=C(N)c1ccc(OC/C=C\COc2ccc(C(=N)N)cc2)cc1`, the half-maximal inhibitory concentration (IC50) was 4.26 µM in [1]; 1.8 µM and 1.48 µM in test [2]. Also, the Increase in IC50 in test [3] was 11.9; in test [6], 29.1 and 38.2. In addition, the nH was 1.39 and 1.38 in test [4]; 1.13 in [5].
Take `N=C(N)c1ccc(OCCCCCOc2ccc(C(=N)N)cc2)cc1` [PENTAMIDINE]: the IC50 in test [1] was 3.06 µM; in [2], 1.31 µM and 1.74 µM. The Increase in IC50 was 9.5 in test [3]; 30.7 and 21.4 in test [6]. For the same molecule, the nH in [4] was 1.17 and 1.15; in test [5] it was 0.93.
With `COc1cc(C(=N)N)ccc1OC/C=C/COc1ccc(C(=N)N)cc1OC`, the IC50 in test [1] was 31 µM and 26.4 µM; in test [2], 12 µM and 12.6 µM. The nH is 1.19 in [4]; 1.28 and 1.21 in test [5]. In addition, the Increase in IC50 in [7] is 2.87 and 4.15; in test [6], 14.3 and 12.2.
With `COc1cc(C2=NCCN2)ccc1OC/C=C/COc1ccc(C2=NCCN2)cc1OC`, the concentration for half-maximal inhibition (IC50) was 63 µM in test [1]; 83 µM in [8]; 35 µM and 33 µM in test [2]. Besides, the nH in test [4] is 1.04 and 0.96; in [5], 1.09 and 1.16. The Increase in IC50 in test [7] was 4.24 and 3.79; in [6], 12.7 and 13.8.
For the molecule `N=C(N)c1ccc(OC[C@@H](O)[C@H](O)COc2ccc(C(=N)N)cc2)cc1`, the IC50 in [1] was 66 µM; in test [2], 24.8 µM and 22.6 µM. The Increase in IC50 is 9.3 in [3]; 8.1 in test [7]; 28.4 and 22.4 in test [6]. Moreover, the nH in test [4] is 1.04 and 1.09; in test [5], 1.23 and 1.08.
Take `N=C(N)c1ccc(OC/C=C/COc2ccc(C(=N)N)cc2)cc1`: the 50% inhibitory concentration (IC50) in [1] was 3.81 µM; in test [2], 2.48 µM and 1.94 µM. Moreover, the Increase in IC50 was 9.5 in test [3]; 21.7 and 27.8 in test [6]. Besides, the nH in [4] was 0.98 and 0.88; in test [5], 0.71.
Regarding `COc1cc(C2=NCCN2)ccc1OC/C=C\COc1ccc(C2=NCCN2)cc1OC`, the IC50 was 32.6 µM and 49 µM in test [1]; 26.5 µM and 23.3 µM in test [2]. Further, the Increase in IC50 in [3] was 4.62 and 3.43; in test [6], 7.8 and 8.6. The nH in test [4] is 1.13 and 1.29; in [5] it was 1.33 and 1.15.
Consider `N=C(N)c1ccc(OCCCCOc2ccc(C(=N)N)cc2)cc1`, for which the IC50 in test [1] was 5.18 µM; in [2], 2.64 µM and 3.01 µM. Besides, the Increase in IC50 was 10.2 in test [3]; 28.8 and 35 in test [6]. Also, the nH is 1.11 and 1.36 in test [4]; 0.99 in test [5].
For the molecule `C(=C\COc1ccc(C2=NCCN2)cc1)/COc1ccc(C2=NCCN2)cc1`, the 50% inhibitory concentration (IC50) in test [1] was 38 µM and 37 µM; in test [2], 13.1 µM and 13.8 µM. The Increase in IC50 was 4.14 in [3]; 4.88 in [9]; 15.3 and 12.7 in [6]. The nH in test [4] was 0.95 and 0.87; in [5], 0.98 and 0.81.
Turning to `COc1cc(C(=N)N)ccc1OC/C=C\COc1ccc(C(=N)N)cc1OC`, the IC50 in [1] is 95 µM; in test [8] it was 73 µM; in test [2], 50 µM and 62 µM. Further, the nH in test [4] was 1.21 and 1.46; in test [5] it was 2.14 and 1. The Increase in IC50 in test [7] was 1.72 and 2.87; in test [6], 4.7 and 4.5.
